Laboratory results reported in article PMC5566978, “Human Leukocyte Antigen (HLA)-DRB1*15:01 and HLA-DRB5*01:01 Present Complementary Peptide Repertoires” (Frontiers in Immunology, 2017).
Where no end group is shown, it is not given here.

Experiments:
[1] = target: recombinant DR2b (DRA1*01:01/DRB1*15:01) (Homo sapiens, UniProt P01903+P01911); test: Competition peptide-binding assay to recombinant DR2b; conditions: competition with 1 µM biotinylated modified GAD555-567 peptide, wells coated with HLA-DR2b, europium-streptavidin time resolved fluorescence
Experimental: (§1) The experimental affinity of different peptides to HLA-DR molecules was determined as previously described ([31]). Briefly, recombinant DR2b (DRA1*01:01/DRB1*15:01) and DR2a (DRA1*01:01/DRB5*01:01) proteins were used for peptide-binding assays. Increasing concentrations of each non-biotinylated test peptide were incubated in competition with 1 µM of the biotinylated GAD555-567 peptide ([…], modified from […] to bind to DRB1*15:01 and DRB5*01:01 in a single unambiguous register) in wells coated with HLA-DR2a or HLA-DR2b. After washing, residual biotinylated reference peptide was labeled using europium conjugated streptavidin (Perkin Elmer) and quantified using a Victor3 D time resolved fluorometer (Perkin Elmer). Peptide-binding curves were simulated by non-linear regression with Prism Software (version 4.03, GraphPad Software Inc.) using a sigmoidal dose–response curve. IC50 binding values were calculated from the resulting curves as the peptide concentration needed for 50% inhibition of reference peptide binding. Equivalent amounts of purified HLA-DR protein were plated on each plate, but similar amounts of total protein can have different levels of activity. Thus, different preparations of protein frequently give different levels of maximum counts (presumably based on differences in purity and the proportion of the protein that is functional). Indeed differences between different preparations of the same HLA-DR protein can be observed.
(§2) Figure 4 Experimental binding affinity of peptides sequenced from MGAR and (A) Binding to DR2a or (B) Binding to DR2b. Increased concentration of the peptides were incubated in wells coated with recombinant human leukocyte antigen (HLA)-DR2a or HLA-DR2b in competition with 1 µM biotinylated modified GAD555-567 peptide ([…], modified from […] to bind to DRB1*15:01 and DRB5*01:01 in a single unambiguous register) to generate binding curves. After washing, residual biotinylated reference peptide was labeled using europium-conjugated streptavidin and quantified. The Y-axis depicts raw europium counts, which is proportional to the amount of residual biotinylated peptide that remains bound to HLA class II. White-filled symbols represent peptides eluted from DR2a. Black-filled symbols represent peptides eluted from DR2b.

[2] = target: recombinant DR2a (DRA1*01:01/DRB5*01:01) (Homo sapiens, UniProt P01903+Q30154); test: Competition peptide-binding assay to recombinant DR2a; conditions: competition with 1 µM biotinylated modified GAD555-567 peptide, wells coated with HLA-DR2a, europium-streptavidin time resolved fluorescence
Experimental: as §1, §2

Work on ELEELRAEQQRLKSQDL yielded an IC50 [1] of over 50 µM.
In the case of LEEFGRFASFEAQG, the IC50 [2] is reported as over 50 µM and the IC50 [1] is reported as over 50 µM.
Work on LEEFGRFASFEAQGA yielded an IC50 [2] of over 50 µM and an IC50 [1] of over 50 µM.
For LPSEKAIFLFVDKTVPQS, the “BINDING IC50 DR2a” value [2] was “non-detectable affinity” and the IC50 [2] was over 50 µM.
In the case of QKKEIHLYQTFVVQ, the IC50 [2] is reported as over 50 µM and the IC50 [1] is reported as over 50 µM.
Sequence QKKEIHLYQTFVVQL has an IC50 [2] of over 50 µM and an IC50 [1] of over 50 µM.
QKKEIHLYQTFVVQLQDPR was tested, and the IC50 [2] was over 50 µM and the IC50 [1] was over 50 µM.
In the case of QKKEIHLYQTFVVQLQDPREP, the IC50 [2] is reported as over 50 µM and the IC50 [1] is reported as over 50 µM.
Work on QTKEFQVLKSLGKLAMG yielded an IC50 [1] of over 50 µM.
SQAEFEKAAEEVRHL was tested, and the IC50 [2] was 5.8 µM and the IC50 [1] was over 50 µM.
